From patent US12629374B2, “Antimalarial agents” (Merck Sharp & Dohme LLC, priority 2020, dated 2026) come the findings set out here.

The subject of the assay is ring stage parasites. Kind of assay: Parasite growth potency assay, 72 hours, LDH readout. Format: cell-based. The conditions noted are these: 72 h, parasite growth measured by LDH assay after 72 hours at 37° C.; 0.7% rings, 2% haematocrit; read-out: EC50. An outline of the steps: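 Parasite growth was quantified by LDH assay after a −80 °C freeze-thaw. Before that, compound was incubated for 72 h at 37 °C under humidified gas with ring-stage cultures adjusted to 0.7% parasitemia and 2% haematocrit in serum- and albumax-supplemented RPMI-Hepes.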
Broadly, the EC50 is the concentration giving half of the maximal effect. For `N=C1N[C@@](CC2CC2)(c2ccccc2)CC(=O)N1Cc1cc(F)cc(C(=O)N[C@@H]2CCOc3ccccc32)c1` [Example 5B, [(4R)-1-[[3-[[(4R)-chroman-4-yl]carbamoyl]-5-fluoro-phenyl]methyl]-4-(cyclopropylmethyl)-6-oxo-4-phenyl-hexahydropyrimidin-2-ylidene]ammonium; 2,2,2-trifluoroacetate], the EC50 is 57.4 nM.

On to `N=C1N[C@@](CC2CC2)(c2ccccc2)CC(=O)N1Cc1cccc(C(=O)N[C@H]2CCOc3ccccc32)c1` [Example 6A, [(4R)-1-[[3-[[(4S)-chroman-4-yl]carbamoyl]phenyl]methyl]-4-(cyclopropylmethyl)-6-oxo-4-phenyl-hexahydropyrimidin-2-ylidene]ammonium; 2,2,2-trifluoroacetate], for which the half-maximal effective concentration (EC50) is 58.8 nM. To `N=C1N[C@@](CC2CC2)(c2ccccc2)CC(=O)N1Cc1cccc(C(=O)N[C@@H]2CCOc3ccccc32)c1` [Example 6B, [(4R)-1-[[3-[[(4R)-chroman-4-yl]carbamoyl]phenyl]methyl]-4-(cyclopropylmethyl)-6-oxo-4-phenyl-hexahydropyrimidin-2-ylidene]ammonium; 2,2,2-trifluoroacetate] belongs 83.9 nM; to `C[C@H](c1cccc(C(=O)N[C@H]2CCOc3ccccc32)c1)N1C(=N)N[C@@](CC2CC2)(c2ccccc2)CC1=O` [Example 7, [(4R)-1-[1-[3-[[(4S)-chroman-4-yl]carbamoyl]phenyl]ethyl]-4-(cyclopropylmethyl)-6-oxo-4-phenyl-hexahydropyrimidin-2-ylidene]ammonium; 2,2,2-trifluoroacetate], 39.2 nM.

Regarding `N=C1N[C@@](CC2CC2)(c2ccccc2)CC(=O)N1[C@H](c1cccnc1)c1cccc(C(=O)N[C@H]2CCOc3ccccc32)c1` [Example 8, [(4R)-1-[[3-[[(4S)-chroman-4-yl]carbamoyl]phenyl]-pyridin-1-ium-3-yl-methyl]-4-(cyclopropylmethyl)-6-oxo-4-phenyl-hexahydropyrimidin-2-ylidene]ammonium; 2,2,2-trifluoroacetate], the concentration for a half-maximal effect (EC50) stood at 4.2 nM.

Consider `CC(C)[C@]1(C)CC(=O)N([C@H](c2ccccc2)c2cccc(C(=O)N[C@H]3CCOc4ccccc43)c2)C(=N)N1` [Example 9A, [(4S)-1-[(R)-[3-[[(4S)-chroman-4-yl]carbamoyl]phenyl]-phenyl-methyl]-4-isopropyl-4-methyl-6-oxo-hexahydropyrimidin-2-ylidene]ammonium; 2,2,2-trifluoroacetate], for which the EC50 is 0.5 nM. With `CC(C)[C@]1(C)CC(=O)N([C@H](c2ccccc2)c2cccc(C(=O)N[C@@H]3CCOc4ccccc43)c2)C(=N)N1` [Example 9B, [(4S)-1-[(R)-[3-[[(4R)-chroman-4-yl]carbamoyl]phenyl]-phenyl-methyl]-4-isopropyl-4-methyl-6-oxo-hexahydropyrimidin-2-ylidene]ammonium; 2,2,2-trifluoroacetate] the figure was 19.2 nM. To `CC(C)[C@]1(C)CC(=O)N(Cc2cccc(C(=O)N[C@@H]3c4ccccc4C[C@H]3O)c2)C(=N)N1` [Example 10, [(4S)-1-[[3-[[(1R,2R)-2-hydroxyindan-1-yl]carbamoyl]phenyl]methyl]-4-isopropyl-4-methyl-6-oxo-hexahydropyrimidin-2-ylidene]ammonium; 2,2,2-trifluoroacetate] belongs 7.9 nM; to `CCC1(CC)CC(=O)N(Cc2cccc(C(=O)N[C@H]3CCOc4ccccc43)c2)C(=N)N1` [Example 11, [1-[[3-[[(4S)-chroman-4-yl]carbamoyl]phenyl]methyl]-4,4-diethyl-6-oxo-hexahydropyrimidin-2-ylidene]ammonium; 2,2,2-trifluoroacetate], 1.5 nM; to `CCC1(CC)CC(=O)N(Cc2cc(F)cc(C(=O)N[C@H]3CCOc4ccccc43)c2)C(=N)N1` [Example 12, [1-[[3-[[(4S)-chroman-4-yl]carbamoyl]-5-fluoro-phenyl]methyl]-4,4-diethyl-6-oxo-hexahydropyrimidin-2-ylidene]ammonium; 2,2,2-trifluoroacetate], 1.4 nM.

As for `CCC[C@H](c1cccc(C(=O)N[C@H]2CCOc3ccccc32)c1)N1C(=N)NC(CC)(CC)CC1=O` [Example 13A, [1-[1-[3-[[(4S)-chroman-4-yl]carbamoyl]phenyl]butyl]-4,4-diethyl-6-oxo-hexahydropyrimidin-2-ylidene]ammonium; 2,2,2-trifluoroacetate], the EC50 amounted to 0.3 nM.

For `CCC[C@@H](c1cccc(C(=O)N[C@H]2CCOc3ccccc32)c1)N1C(=N)NC(CC)(CC)CC1=O` [Example 13B, [1-[1-[3-[[(4S)-chroman-4-yl]carbamoyl]phenyl]butyl]-4,4-diethyl-6-oxo-hexahydropyrimidin-2-ylidene]ammonium; 2,2,2-trifluoroacetate], the half-maximal effective concentration (EC50) was 43.8 nM. For the molecule `CCC1(CC)CC(=O)N([C@H](CC(C)C)c2cccc(C(=O)N[C@H]3CCOc4ccccc43)c2)C(=N)N1` [Example 14A, [1-[1-[3-[[(4S)-chroman-4-yl]carbamoyl]phenyl]-3-methyl-butyl]-4,4-diethyl-6-oxo-hexahydropyrimidin-2-ylidene]ammonium; 2,2,2-trifluoroacetate], the EC50 turned out to be 0.2 nM. To `CCC1(CC)CC(=O)N([C@@H](CC(C)C)c2cccc(C(=O)N[C@H]3CCOc4ccccc43)c2)C(=N)N1` [Example 14B, [1-[1-[3-[[(4S)-chroman-4-yl]carbamoyl]phenyl]-3-methyl-butyl]-4,4-diethyl-6-oxo-hexahydropyrimidin-2-ylidene]ammonium; 2,2,2-trifluoroacetate] belongs 55 nM; to `CCC1(CC)CC(=O)N(Cc2cccc(C(=O)N[C@@H]3c4ccccc4C[C@H]3O)c2)C(=N)N1` [Example 15, [4,4-diethyl-1-[[3-[[(1R,2R)-2-hydroxyindan-1-yl]carbamoyl]phenyl]methyl]-6-oxo-hexahydropyrimidin-2-ylidene]ammonium; 2,2,2-trifluoroacetate], 2.6 nM. To `CCC1(CC)CC(=O)N([C@H](c2ccccc2)c2cccc(C(=O)N[C@@H]3c4ccccc4C[C@H]3O)c2)C(=N)N1` [Example 16, [4,4-diethyl-1-[[3-[[(1R,2R)-2-hydroxyindan-1-yl]carbamoyl]phenyl]-phenyl-methyl]-6-oxo-hexahydropyrimidin-2-ylidene]ammonium; 2,2,2-trifluoroacetate] belongs 0.3 nM.

With `N=C1N[C@@](CC2CC2)(c2ccccc2)CC(=O)N1Cc1cccc(C(=O)N[C@@H]2c3ccccc3C[C@H]2O)c1` [Example 17, [(4R)-4-(cyclopropylmethyl)-1-[[3-[[(1R,2R)-2-hydroxyindan-1-yl]carbamoyl]phenyl]methyl]-6-oxo-4-phenyl-hexahydropyrimidin-2-ylidene]ammonium; 2,2,2-trifluoroacetate], the EC50 turned out to be 3.7 nM. To `CC(C)[C@]1(C)CC(=O)N(Cc2cccc(C(=O)N[C@@H]3c4ccccc4C[C@@H]3O)c2)C(=N)N1` [Example 18, [(4S)-1-[[3-[[(1R,2S)-2-hydroxyindan-1-yl]carbamoyl]phenyl]methyl]-4-isopropyl-4-methyl-6-oxo-hexahydropyrimidin-2-ylidene]ammonium; 2,2,2-trifluoroacetate] belongs 21.5 nM; to `CCC1(CC)CC(=O)N([C@H](COC)c2cccc(C(=O)N[C@H]3CCOc4ccccc43)c2)C(=N)N1` [Example 19, [1-[1-[3-[[(4S)-chroman-4-yl]carbamoyl]phenyl]-2-methoxy-ethyl]-4,4-diethyl-6-oxo-hexahydropyrimidin-2-ylidene]ammonium; 2,2,2-trifluoroacetate], 0.6 nM; to `CCC1(CC)CC(=O)N(Cc2cccc(C(=O)N[C@H]3CCOc4ccccc43)c2F)C(=N)N1` [Example 20, [1-[[3-[[(4S)-chroman-4-yl]carbamoyl]-2-fluoro-phenyl]methyl]-4,4-diethyl-6-oxo-hexahydropyrimidin-2-ylidene]ammonium; 2,2,2-trifluoroacetate], 10.9 nM. With `CCC1(CC)CC(=O)N(Cc2ccc(F)c(C(=O)N[C@H]3CCOc4ccccc43)c2)C(=N)N1` [Example 21, [1-[[3-[[(4S)-chroman-4-yl]carbamoyl]-4-fluoro-phenyl]methyl]-4,4-diethyl-6-oxo-hexahydropyrimidin-2-ylidene]ammonium; 2,2,2-trifluoroacetate] the figure was 3.5 nM. With `CCC1(CC)CC(=O)N(Cc2ccnc(C(=O)N[C@H]3CCOc4ccccc43)c2)C(=N)N1` [Example 22, [1-[[2-[[(4S)-chroman-4-yl]carbamoyl]-4-pyridyl]methyl]-4,4-diethyl-6-oxo-hexahydropyrimidin-2-ylidene]ammonium; 2,2,2-trifluoroacetate] the figure was 17.2 nM; with `CCC1(CC)CC(=O)N(Cc2cc(C(=O)N[C@H]3CCOc4ccccc43)ccn2)C(=N)N1` [Example 23, [1-[[4-[[(4S)-chroman-4-yl]carbamoyl]-2-pyridyl]methyl]-4,4-diethyl-6-oxo-hexahydropyrimidin-2-ylidene]ammonium; 2,2,2-trifluoroacetate], 11.5 nM. Regarding `CCC1(CC)CC(=O)N(Cc2cncc(C(=O)N[C@H]3CCOc4ccccc43)c2)C(=N)N1` [Example 24, [1-[[5-[[(4S)-chroman-4-yl]carbamoyl]-3-pyridyl]methyl]-4,4-diethyl-6-oxo-hexahydropyrimidin-2-ylidene]ammonium; 2,2,2-trifluoroacetate], the EC50 stood at 10.1 nM.

On to `CC(C)[C@]1(C)CC(=O)N([C@H](C)c2cccc(C(=O)N[C@H]3CCOc4ccccc43)c2)C(=N)N1` [Example 25, [(4S)-1-[1-[3-[[(4S)-chroman-4-yl]carbamoyl]phenyl]ethyl]-4-isopropyl-4-methyl-6-oxo-hexahydropyrimidin-2-ylidene]ammonium; 2,2,2-trifluoroacetate], for which the 50% effective concentration (EC50) stood at 4.4 nM. To `CC(C)[C@]1(C)CC(=O)N([C@@H](c2cccc(C(=O)N[C@H]3CCOc4ccccc43)c2)C23CC(C2)C3)C(=N)N1` [Example 26, [(4S)-1-[1-bicyclo[1.1.1]pentanyl-[3-[[(4S)-chroman-4-yl]carbamoyl]phenyl]methyl]-4-isopropyl-4-methyl-6-oxo-hexahydropyrimidin-2-ylidene]ammonium; 2,2,2-trifluoroacetate] belongs 8.9 nM.
